# Positions count from the first letter of the chain named.
# B1: Human succinic semialdehyde dehydrogenase (enzyme)
# chain: GRLAGLSAALLRTDSFVGGRWLPAAATFPVQDPASGAALGMVADCGVREARAAVRAAYEAFCRWREVSAKERSSLLRKWYNLMIQNKDDLARIITAESGKPLKEAHGEILYSAFFLEWFSEEARRVYGDIIHTPAKDRRALVLKQPIGVAAVITPWNFPSAMITRKVGAALAAGCTVVVKPAEDTPFSALALAELASQAGIPSGVYNVIPCSRKNAKEVGEAICTDPLVSKISFTGSTTTGKILLHHAANSVKRVSMELGGLAPFIVFDSANVDQAVAGAMASKFRNTGQTCVCSNQFLVQRGIHDAFVKAFAEAMKKNLRVGNGFEEGTTQGPLINEKAVEKVEKQVNDAVSKGATVVTGGKRHQLGKNFFEPTLLCNVTQDMLCTHEETFGPLAPVIKFDTEEEAIAIANAADVGLAGYFYSQDPAQIWRVAEQLEVGMVGVNEGLISSVECPFGGVKQSGLGREGSKYGIDEYLELKYVCYGGL
# notes: Human succinic semialdehyde dehydrogenase (EC 1.2.1.24), gene ALDH5A1; this is surmised; also called hSSADH; WT hSSADH; source: recombinant, expressed and purified as described (Didiasova et al. 2024)
# B2: hSSADH (human succinic semialdehyde dehydrogenase) (Homo sapiens) (protein)
# chain: AGRLAGLSAALLRTDSFVGGRWLPAAATFPVQDPASGAALGMVADCGVREARAAVRAAYEAFCRWREVSAKERSSLLRKWYNLMIQNKDDLARIITAESGKPLKEAHGEILYSAFFLEWFSEEARRVYGDIIHTPAKDRRALVLKQPIGVAAVITPWNFPSAMITRKVGAALAAGCTVVVKPAEDTPFSALALAELASQAGIPSGVYNVIPCSRKNAKEVGEAICTDPLVSKISFTGSTTTGKILLHHAANSVKRVSMELGGLAPFIVFDSANVDQAVAGAMASKFRNTGQTCVCSNQFLVQRGIHDAFVKAFAEAMKKNLRVGNGFEEGTTQGPLINEKAVEKVEKQVNDAVSKGATVVTGGKRHQLGKNFFEPTLLCNVTQDMLCTHEETFGPLAPVIKFDTEEEAIAIANAADVGLAGYFYSQDPAQIWRVAEQLEVGMVGVNEGLISSVECPFGGVKQSGLGREGSKYGIDEYLELKYVCYGGL
# notes: purified recombinant homotetramer, expressed and purified as in Didiasova et al. 2024
# Assays:
# [1] = target: T1, hSSADH (human succinic semialdehyde dehydrogenase) (Homo sapiens, UniProt P51649); assay: product inhibition, NADH […], replots of slopes and intercepts; type: biochemical
# T1 construct: gene ALDH5A1; purified recombinant homotetramer, expressed and purified as in Didiasova et al. 2024
# T1 sequence (P51649 48-535): B2 chain
# [2] = target: T1, hSSADH (human succinic semialdehyde dehydrogenase); assay: intrinsic fluorescence quenching (ex […] nm, em […] nm), hyperbolic fit; type: binding
# [3] = target: T2, hSSADH (human succinic semialdehyde dehydrogenase) (Homo sapiens, UniProt P51649, K214A); assay: as above; type: binding; conditions: read-out: K DNAD+
# T2 construct: gene ALDH5A1; purified recombinant homotetramer, expressed and purified as in Didiasova et al. 2024
# T2 sequence (P51649 48-535 K214A): B2 chain with K167A
# [4] = target: T3, hSSADH (human succinic semialdehyde dehydrogenase) (Homo sapiens, UniProt P51649, E306Q); assay: as above; type: binding; conditions: read-out: K DNAD+
# T3 construct: gene ALDH5A1; purified recombinant homotetramer, expressed and purified as in Didiasova et al. 2024
# T3 sequence (P51649 48-535 E306Q): B2 chain with E259Q
# [5] = target: T1, hSSADH (human succinic semialdehyde dehydrogenase); assay: initial rates, NADH fluorescence (ex […], em […] nm), global fit to Equation ([…]); type: biochemical; conditions: partial non-competitive substrate inhibition, co-substrate NAD+, pH 8, potassium phosphate
# [6] = target: the molecule itself; assay: not stated; purified recombinant hSSADH; the experiment on the oligomeric state is in Data S1 (not shown)
# [7] = substrate: O=CCCC(=O)O; assay: purified protein; type: biochemical, Homo sapiens; conditions: co-substrate NAD+, pH 8, 100 mM potassium phosphate, 14°C, ordered bi-bi, partial substrate inhibition fit
# [8] = substrate: NC(=O)c1ccc[n+]([C@@H]2O[C@H](COP(=O)([O-])OP(=O)(O)OC[C@H]3O[C@@H](n4cnc5c(N)ncnc54)[C@H](O)[C@@H]3O)[C@@H](O)[C@H]2O)c1; assay: purified protein; type: biochemical, Homo sapiens; conditions: co-substrate SSA, pH 8, 100 mM potassium phosphate, 14°C, ordered bi-bi, partial substrate inhibition fit, varied: cofactor
molecule,measurement,setting,value
NC(=O)C1=CN([C@@H]2O[C@H](COP(=O)(O)OP(=O)(O)OC[C@H]3O[C@@H](n4cnc5c(N)ncnc54)[C@H](O)[C@@H]3O)[C@@H](O)[C@H]2O)C=CC1 [NADH],Ki,[1],15 ± 2 µM
NC(=O)c1ccc[n+]([C@@H]2O[C@H](COP(=O)([O-])OP(=O)(O)OC[C@H]3O[C@@H](n4cnc5c(N)ncnc54)[C@H](O)[C@@H]3O)[C@@H](O)[C@H]2O)c1 [NAD^+],Kd,[2],4.5 ± 0.8 µM
same,Kd,[3],2.5 ± 0.2 µM
same,Kd,[4],4.3 ± 0.4 µM
O=CCCC(=O)O [SSA],From Equation (5) (14°C),[5],13 ± 3 µM
B1,stoichiometry N,[6],4
B2,Km,[7],1.2 ± 0.2 µM
same,kcat,[7],26 ± 2 s⁻¹
same,Km,[8],31 ± 5 µM
same,kcat,[8],26 ± 2 s⁻¹
